Source: publication PMC12514245, “Impaired migration and lung invasion of human melanoma by a novel small molecule targeting the transmembrane domain of death receptor p75^NTR” (EMBO Molecular Medicine, 2025)

System: A875 shp75 cells
Assay: Wound healing cell motility assay, A875 shp75
Type: cell-based, human
Protocol: For wound healing assay, cells were grown until confluency and subjected to a wound across the cell mono-layer. Cells were then incubated with serum-free media either with DMSO or a small molecule (with or without 5 µM Q_VD_poH) and imaged at specific time-points. Cell migration is reflected as fold change in wound area over time.

Oc1ccc(-c2cncc(Nc3ccc(Br)c(Cl)c3)n2)cc1 [Div17E5]
Wound area (Fold) (A875 shp75, 1uM, 0 h, n2): 1.053 Fold | Wound area (Fold) (A875 shp75, 1uM, 0 h, n3): 0.966 Fold | Wound area (Fold) (A875 shp75, 1uM, 3 h, Mean): 0.957 Fold | Wound area (Fold) (A875 shp75, 1uM, 3 h, n1): 0.947 Fold | Wound area (Fold) (A875 shp75, 1uM, 3 h, n2): 0.963 Fold | Wound area (Fold) (A875 shp75, 1uM, 3 h, n3): 0.960 Fold | Wound area (Fold) (A875 shp75, 1uM, 6 h, Mean): 0.921 Fold | Wound area (Fold) (A875 shp75, 1uM, 6 h, n1): 0.914 Fold | Wound area (Fold) (A875 shp75, 1uM, 6 h, n2): 0.924 Fold | Wound area (Fold) (A875 shp75, 1uM, 6 h, n3): 0.923 Fold | Wound area (Fold) (A875 shp75, 1uM, 9 h, Mean): 0.898 Fold | Wound area (Fold) (A875 shp75, 1uM, 9 h, n1): 0.889 Fold | Wound area (Fold) (A875 shp75, 1uM, 9 h, n2): 0.905 Fold | Wound area (Fold) (A875 shp75, 1uM, 9 h, n3): 0.901 Fold | Wound area (Fold) (A875 shp75, 1uM, 12 h, Mean): 0.873 Fold | Wound area (Fold) (A875 shp75, 1uM, 12 h, n1): 0.869 Fold | Wound area (Fold) (A875 shp75, 1uM, 12 h, n2): 0.870 Fold | Wound area (Fold) (A875 shp75, 1uM, 12 h, n3): 0.881 Fold | Wound area (Fold) (A875 shp75, 1uM, 15 h, Mean): 0.847 Fold | Wound area (Fold) (A875 shp75, 1uM, 15 h, n1): 0.839 Fold | Wound area (Fold) (A875 shp75, 1uM, 15 h, n2): 0.841 Fold | Wound area (Fold) (A875 shp75, 1uM, 15 h, n3): 0.861 Fold | Wound area (Fold) (A875 shp75, 1uM, 18 h, Mean): 0.821 Fold | Wound area (Fold) (A875 shp75, 1uM, 18 h, n1): 0.821 Fold | Wound area (Fold) (A875 shp75, 1uM, 18 h, n2): 0.823 Fold | Wound area (Fold) (A875 shp75, 1uM, 18 h, n3): 0.820 Fold | Wound area (Fold) (A875 shp75, 1uM, 21 h, Mean): 0.792 Fold | Wound area (Fold) (A875 shp75, 1uM, 21 h, n1): 0.780 Fold | Wound area (Fold) (A875 shp75, 1uM, 21 h, n2): 0.797 Fold | Wound area (Fold) (A875 shp75, 1uM, 21 h, n3): 0.800 Fold | Wound area (Fold) (A875 shp75, 1uM, 24 h, Mean): 0.773 Fold | Wound area (Fold) (A875 shp75, 1uM, 24 h, n1): 0.775 Fold | Wound area (Fold) (A875 shp75, 1uM, 24 h, n2): 0.773 Fold | Wound area (Fold) (A875 shp75, 1uM, 24 h, n3): 0.771 Fold | Wound area (Fold) (A875 shp75, 2uM, 0 h, Mean): 1.000 Fold | Wound area (Fold) (A875 shp75, 2uM, 0 h, n1): 1.055 Fold | Wound area (Fold) (A875 shp75, 2uM, 0 h, n2): 0.891 Fold | Wound area (Fold) (A875 shp75, 2uM, 0 h, n3): 1.054 Fold | Wound area (Fold) (A875 shp75, 2uM, 3 h, Mean): 0.908 Fold | Wound area (Fold) (A875 shp75, 2uM, 3 h, n1): 0.882 Fold | Wound area (Fold) (A875 shp75, 2uM, 3 h, n2): 0.921 Fold | Wound area (Fold) (A875 shp75, 2uM, 3 h, n3): 0.922 Fold | Wound area (Fold) (A875 shp75, 2uM, 6 h, Mean): 0.857 Fold | Wound area (Fold) (A875 shp75, 2uM, 6 h, n1): 0.826 Fold | Wound area (Fold) (A875 shp75, 2uM, 6 h, n2): 0.869 Fold | Wound area (Fold) (A875 shp75, 2uM, 6 h, n3): 0.877 Fold | Wound area (Fold) (A875 shp75, 2uM, 9 h, Mean): 0.836 Fold | Wound area (Fold) (A875 shp75, 2uM, 9 h, n1): 0.818 Fold | Wound area (Fold) (A875 shp75, 2uM, 9 h, n2): 0.854 Fold | Wound area (Fold) (A875 shp75, 2uM, 9 h, n3): 0.836 Fold | Wound area (Fold) (A875 shp75, 2uM, 12 h, Mean): 0.798 Fold | Wound area (Fold) (A875 shp75, 2uM, 12 h, n1): 0.793 Fold | Wound area (Fold) (A875 shp75, 2uM, 12 h, n2): 0.807 Fold | Wound area (Fold) (A875 shp75, 2uM, 12 h, n3): 0.794 Fold | Wound area (Fold) (A875 shp75, 2uM, 15 h, Mean): 0.786 Fold | Wound area (Fold) (A875 shp75, 2uM, 15 h, n1): 0.790 Fold | Wound area (Fold) (A875 shp75, 2uM, 15 h, n2): 0.776 Fold | Wound area (Fold) (A875 shp75, 2uM, 15 h, n3): 0.791 Fold | Wound area (Fold) (A875 shp75, 2uM, 18 h, Mean): 0.750 Fold | Wound area (Fold) (A875 shp75, 2uM, 18 h, n1): 0.749 Fold | Wound area (Fold) (A875 shp75, 2uM, 18 h, n2): 0.742 Fold | Wound area (Fold) (A875 shp75, 2uM, 18 h, n3): 0.760 Fold | Wound area (Fold) (A875 shp75, 2uM, 21 h, Mean): 0.731 Fold | Wound area (Fold) (A875 shp75, 2uM, 21 h, n1): 0.738 Fold | Wound area (Fold) (A875 shp75, 2uM, 21 h, n2): 0.705 Fold | Wound area (Fold) (A875 shp75, 2uM, 21 h, n3): 0.751 Fold | Wound area (Fold) (A875 shp75, 2uM, 24 h, Mean): 0.700 Fold | Wound area (Fold) (A875 shp75, 2uM, 24 h, n1): 0.699 Fold | Wound area (Fold) (A875 shp75, 2uM, 24 h, n2): 0.661 Fold | Wound area (Fold) (A875 shp75, 2uM, 24 h, n3): 0.739 Fold
